Laboratory results as given in the NIST ThermoML archive (doi:10.1016/j.tca.2011.02.002).
Numbers after ± are expanded uncertainties.

Tests used:
[1] = 101 kPa, Liquid; for mass density: Vibrating tube method
[2] = xn = mol fraction of the nth substance listed; conditions: 101 kPa, Liquid, x1 = 1; for mass density: Vibrating tube method

speed of sound ([1]; 298.15 K) [m/s]	mass density ([1]; 298.15 K) [kg/m3]	speed of sound ([1]; 303.15 K) [m/s]	mass density ([1]; 303.15 K) [kg/m3]	speed of sound ([1]; 308.15 K) [m/s]	mass density ([1]; 308.15 K) [kg/m3]	SMILES	mass density ([2]; 298.15 K) [kg/m3]	speed of sound ([2]; 298.15 K) [m/s]	mass density ([2]; 303.15 K) [kg/m3]	speed of sound ([2]; 303.15 K) [m/s]	mass density ([2]; 308.15 K) [kg/m3]	speed of sound ([2]; 308.15 K) [m/s]
1380.1 ± 2	939.802 ± 0.99	1361 ± 2	935.117 ± 0.98	1339.9 ± 2	930.414 ± 0.98	Cc1ccccn1 [2-methylpyridine]						
1424 ± 2	952.002 ± 1	1404 ± 2	947.449 ± 1	1384 ± 2	942.831 ± 0.99	Cc1cccnc1 [3-methylpyridine]						
						C1CCOCC1 [tetrahydropyran] + c1ccncc1	879.136 ± 0.91	1269.9 ± 2	873.992 ± 0.9	1246.8 ± 2	868.831 ± 0.89	1224.5 ± 2
						C1CCOCC1 [tetrahydropyran] + Cc1ccncc1	879.136 ± 0.91	1269.9 ± 2	873.992 ± 0.9	1246.8 ± 2	868.831 ± 0.89	1224.5 ± 2
						C1CCOCC1 [tetrahydropyran] + Cc1cccnc1	879.136 ± 0.91	1269.9 ± 2	873.992 ± 0.9	1246.8 ± 2	868.831 ± 0.89	1224.5 ± 2
						C1CCOCC1 [tetrahydropyran] + Cc1ccccn1	879.136 ± 0.91	1269.9 ± 2	873.992 ± 0.9	1246.8 ± 2	868.831 ± 0.89	1224.5 ± 2
1431.5 ± 1	950.179 ± 0.3	1410.7 ± 1	945.413 ± 0.3	1389.9 ± 1	940.821 ± 0.3	Cc1ccncc1 [4-methylpyridine]						

SMILES	speed of sound ([1]; 298.15 K) [m/s]	mass density ([1]; 298.15 K) [kg/m3]	speed of sound ([1]; 303.15 K) [m/s]	mass density ([1]; 303.15 K) [kg/m3]	speed of sound ([1]; 308.15 K) [m/s]	mass density ([1]; 308.15 K) [kg/m3]	mass density ([2]; 298.15 K) [kg/m3]	speed of sound ([2]; 298.15 K) [m/s]	mass density ([2]; 303.15 K) [kg/m3]	speed of sound ([2]; 303.15 K) [m/s]	mass density ([2]; 308.15 K) [kg/m3]	speed of sound ([2]; 308.15 K) [m/s]
C1CCOCC1 [tetrahydropyran]	1269.9 ± 2	879.136 ± 0.91	1246.8 ± 2	873.992 ± 0.9	1224.5 ± 2	868.831 ± 0.89						
c1ccncc1 [pyridine]	1417.6 ± 1.1	978.249 ± 0.3	1397.4 ± 1.1	973.224 ± 0.3	1377.1 ± 1.1	968.166 ± 0.3						
